In ChEMBL document CHEMBL1255529, “Design, synthesis, and anticancer activities of novel perfluoroalkyltriazole-appended 2'-deoxyuridines” (Bioorg Med Chem Lett, 2010) one finds GI, GI50 and Activity data, which are given here for 9 compounds.

One series has as its system MDA-MB-231. The series can be described thus: Anticancer activity against human MDA-MB-231 cells by SRB assay. The series is classed as functional. The following applies: for GI50: Homo sapiens, MDA-MB-231.
The nature of series [1]: Antiproliferative activity against human CCD-33Lu.
The subject of a further series is PC-3. Nature of the series: Anticancer activity against human PC3 cells by SRB assay. The series is classed as functional. Particulars: for GI50: Homo sapiens, PC-3.
Another series concerns ACHN. Nature of the series: Anticancer activity against human ACHN cells by SRB assay. Particulars: for GI50: Homo sapiens, ACHN. The series is classed as functional. On the technique in general: In SRB staining, fixed cells bind dye roughly in proportion to their protein.

As a reminder, the GI50 is the concentration that inhibits growth by half. A high value points to lower sensitivity of the cells. On to `O=c1[nH]c(=O)n([C@H]2C[C@H](O)[C@@H](CO)O2)cc1-c1cn(CCC(F)(F)C(F)(F)C(F)(F)C(F)(F)C(F)(F)C(F)(F)C(F)(F)C(F)(F)F)nn1`, for which the GI in the series with MDA-MB-231 worked out at 15.9 µM; in the series with PC-3 it was 16.7 µM; in the series on ACHN, 14.2 µM. The GI50 with MDA-MB-231 worked out at 8670 nM; in the series with PC-3 it was 7750 nM; in the series on ACHN it was 8240 nM. Besides, the Activity entry in series [1] is reported as “Non-toxic”.

On to `CC(=O)OC[C@H]1O[C@@H](n2cc(-c3cn(CCC(F)(F)C(F)(F)C(F)(F)C(F)(F)C(F)(F)C(F)(F)F)nn3)c(=O)[nH]c2=O)C[C@@H]1OC(C)=O`, for which the results for the GI in the series with MDA-MB-231, in the series with PC-3 and in the series on ACHN were 99.4 µM, 89.4 µM and 113.8 µM, respectively.

On to `COc1cccc2c1C(=O)c1c(O)c3c(c(O)c1C2=O)C[C@@](O)(C(=O)CO)C[C@@H]3O[C@H]1C[C@H](N)[C@H](O)[C@H](C)O1` [DOXORUBICIN], for which the GI with MDA-MB-231 was found to be 16.5 µM; in the series with PC-3 it was 28.5 µM; with ACHN, 12.3 µM. Further, the figures for the GI50 in the series on MDA-MB-231, in the series on PC-3 and with ACHN were 180 nM, 280 nM and 220 nM, respectively.

As for `O=c1[nH]c(=O)n([C@H]2C[C@H](O)[C@@H](CO)O2)cc1-c1cn(CCC(F)(F)C(F)(F)C(F)(F)C(F)(F)C(F)(F)C(F)(F)F)nn1`, the results for the GI with MDA-MB-231, in the series with PC-3 and in the series with ACHN were 106.5 µM, 114.5 µM and 99.3 µM, respectively.

For the compound `O=c1[nH]c(=O)n([C@H]2C[C@H](O)[C@@H](CO)O2)cc1-c1cn(CCC(F)(F)C(F)(F)C(F)(F)C(F)(F)F)nn1`, the GI in the series with MDA-MB-231 was 109.7 µM; with PC-3, 97.8 µM; in the series on ACHN, 116 µM.

`O=c1[nH]c(=O)n([C@H]2C[C@H](O)[C@@H](CO)O2)cc1F` [FLOXURIDINE]: the GI50 in the series on MDA-MB-231 is 160 nM; in the series on PC-3, 4970 nM; in the series on ACHN, 2100 nM. Besides, the GI is 40.7 µM with PC-3 and 25.8 µM in the series on ACHN.

With `CC(=O)OC[C@H]1O[C@@H](n2cc(-c3cn(CCC(F)(F)C(F)(F)C(F)(F)C(F)(F)C(F)(F)C(F)(F)C(F)(F)C(F)(F)F)nn3)c(=O)[nH]c2=O)C[C@@H]1OC(C)=O`, the GI in the series on MDA-MB-231 turned out to be 99.1 µM; in the series with PC-3, 77.9 µM; in the series on ACHN, 110.8 µM.

Consider `O=c1[nH]c(=O)n([C@H]2C[C@H](O)[C@@H](CO)O2)cc1-c1cn(CCC(F)(F)C(F)(F)F)nn1`, for which the values for the GI in the series with MDA-MB-231, in the series on PC-3 and in the series on ACHN were 98.7 µM, 96.4 µM and 96.1 µM, respectively.

Turning to `O=c1[nH]c(=O)n([C@H]2C[C@H](O)[C@@H](CO)O2)cc1-c1cn(CCC(F)(F)C(F)(F)C(F)(F)C(F)(F)C(F)(F)C(F)(F)C(F)(F)C(F)(F)C(F)(F)C(F)(F)F)nn1`, the GI in the series on MDA-MB-231 was 93.7 µM; with PC-3 it was 89.4 µM; with ACHN it was 90.8 µM.
